Data published in the C3SDB collision cross section collection.
“And” between values parts separate entries of the source, which are not always exact repeats. Equal values may be shown once.

How the values were obtained:
[1] = instrument: DT, single field, calibrated with Agilent tune mix (Agilent)
[2] = instrument: DT, stepped-field

SMILES	collision cross section (N2) ([2]; [M+H]+)	collision cross section (N2) ([2]; [M+Na]+)	also measured
Nc1ccn([C@H]2C[C@H](O)[C@@H](CO)O2)c(=O)n1 [Deoxycytidine]		158.41 Å²	collision cross section (N2) ([1]; [M+Na]+): 154.5 Å²; collision cross section (N2) ([1]; [M-H]-): 146.84 Å²
Cn1c(=O)c2c(ncn2C)n(C)c1=O [Caffeine]	145.4 Å²	142.93 Å²	collision cross section (N2) ([1]; [M+H]+): 140.9 Å²
Cc1ccc2ccccc2c1 [2-methylnaphthalene]	124.57 Å²		
CCCCCCCCCCCCCCCCCC(=O)O [Stearic Acid]		191.83 Å²	
OC[C@H]1O[C@@H](O[C@H]2[C@H](O)[C@@H](O)[C@H](O)O[C@@H]2CO)[C@H](O)[C@@H](O)[C@@H]1O [Cellobiose]		178.66 Å²	collision cross section (N2) ([1]; [M+Na]+): 178.1 Å²
CCCCC/C=C\C/C=C\C/C=C\CCCCCCC(=O)O [Bishomo-gamma-linolenic Acid]		183.38 Å²	
O=C(O)C1=C[C@@H](O)[C@@H](O)[C@H](O)C1 [Shikimic Acid]	149.5 Å²		
CCCCC/C=C/C/C=C\C[C@@H]1O[C@@H]1C/C=C\CCCC(=O)O [8(9)-EET]		186.83 Å²	
OC[C@H]1O[C@@](CO)(OC[C@@]2(O[C@H]3O[C@H](CO)[C@@H](O)[C@H](O)[C@H]3O)O[C@H](CO)[C@@H](O)[C@@H]2O)[C@@H](O)[C@@H]1O [1-Kestose]		205.43 Å²	
C1=Cc2cccc3cccc1c23 [Acenaphthylene]	125.71 Å²		
CO[C@H]1/C=C/O[C@@]2(C)Oc3c(C)c(O)c4c(c3C2=O)C(=O)/C(=C/NN2CCN(C)CC2)C(=C4O)NC(=O)/C(C)=C\C=C\[C@H](C)[C@H](O)[C@@H](C)[C@@H](O)[C@@H](C)[C@H](OC(C)=O)[C@@H]1C [Rifampicin]	287.13 Å²	285.07 Å²	
CCCCC[C@H](O)/C=C/C=C\C=C\C=C\[C@@H](O)[C@@H](O)CCCC(=O)O [Lipoxin A4]		197.89 Å²	
COc1ccc(-c2cc(=O)c3c(O)cc(O)cc3o2)cc1 [Acacetin]	167.06 Å²		
O=C(COP(=O)(O)O)[C@@H](O)[C@H](O)[C@H](O)CO [Fructose-1-phosphate]		159.68 Å²	collision cross section (N2) ([1]; [M+Na]+): 155.4 Å²; collision cross section (N2) ([1]; [M-H]-): 141.86 Å²
O=C1C(=O)c2cccc3cccc1c23 [Acenaphthenequinone]	145.51 Å²		
C[S+](CC[C@H](N)C(=O)[O-])C[C@H]1O[C@@H](n2cnc3c(N)ncnc32)[C@H](O)[C@@H]1O (stereo partly drawn) [S-Adenosyl-L-methionine]	186.46 Å²		
O=C1C=Cc2cccc3cccc1c23 [Perinaphthenon]	134.59 Å²		
CCCCC[C@H](O)/C=C/[C@@H]1[C@@H](C/C=C\CCCC(=O)O)[C@@H](O)C[C@H]1O [Prostaglandin F2 alpha]		207.33 Å²	
Nc1nc(=O)c2c([nH]1)NCC(CNc1ccc(C(=O)N[C@@H](CCC(=O)O)C(=O)O)cc1)=N2 [Dihydrofolate]	193.63 Å²		
OCC1(O)OC[C@@H](O)[C@@H](O)[C@@H]1O (stereo partly drawn) [D-Fructose]		141.93 Å²	collision cross section (N2) ([1]; [M+Na]+): 141.4 Å²
CC1(C)S[C@@H]2[C@H](NC(=O)[C@H](N)c3ccccc3)C(=O)N2[C@H]1C(=O)O [Ampicillin]	193.17 Å²	187.93 Å²	

SMILES	collision cross section (N2) ([2]; [M+H]+)	collision cross section (N2) ([2]; [M+Na]+)	also measured
N#Cc1c[nH]cc1-c1cccc2c1OC(F)(F)O2 [Fludioxonil]		165.7 Å²	
CP(=O)(O)CCC(N)C(=O)O (centres undefined) [Glufosinate]	140.15 Å²	142.7 Å²	
CN(C)C(=O)Nc1cccc(C(F)(F)F)c1 [Fluometuron]	152.2 Å²	161.2 Å²	
CCCCC/C=C\C/C=C\C=C\[C@@H](O)C/C=C\CCCC(=O)O [8S-HETE]		187.17 Å²	
C[C@@H]1O[C@@H](O[C@H]2[C@H](Oc3cc(O)c4c(c3)O[C@H](c3ccc(O)cc3)CC4=O)O[C@H](CO)[C@@H](O)[C@@H]2O)[C@H](O)[C@H](O)[C@H]1O [Naringin]	240.62 Å²	234.02 Å²	collision cross section (N2) ([1]; [M+H]+): 237.5 Å²
CCCCC[C@H](O)/C=C/[C@@H]1[C@@H](C/C=C\CCCC(=O)O)[C@@H](O)C[C@H]1O [Prostaglandin F2a]		205.7 Å²	
CCCCC/C=C\C=C\C(=O)CCCCCCCC(=O)O [9-OxoODE]	184.2 Å²	199.5 Å²	
CCCCC/C=C\C/C=C\C/C=C\C/C=C\CCCCCC(=O)O [Adrenic Acid]	189.41 Å²	192.83 Å²	
OC[C@H]1O[C@H](O[C@H]2[C@H](O)[C@H](O)COC2(O)CO)[C@H](O)[C@@H](O)[C@@H]1O (stereo partly drawn) [D-(+)-Turanose]		177 Å²	
COc1cc(O)c2c(c1)O[C@H](c1ccccc1)CC2=O [Pinostrobin]	164.24 Å²		
CCCCCCCCCCCCCCCCCCC(=O)OC[C@@H](O)COP(=O)([O-])OCC[N+](C)(C)C [LPC(19:0)]	241.9 Å²		
Oc1cc(O)c2cc(O)c(-c3ccc(O)c(O)c3)[o+]c2c1 [Cyanidin]			collision cross section (N2) ([2]; [M]+): 168.33 Å²
c1ccc2c(c1)cc1ccc3cccc4ccc2c1c34 [Benzo(a)Pyrene]	152.05 Å²		
CCCCCCCCCCCC(=O)O[C@H](CC(=O)[O-])C[N+](C)(C)C [Lauroyl-L-carnitine]		217.5 Å²	
O=C1CC(c2ccc(O)cc2)Oc2cc(O)cc(O)c21 (centres undefined) [Naringenin]	167.96 Å²		
C[n+]1cccc(C(=O)[O-])c1 [Trigonelline]	126.37 Å²	139.87 Å²	
CCCCCCC/C=C\CCCCCCCC(=O)OC[C@H](COP(=O)(O)OCCN)OC(=O)CCCCCCC/C=C\CCCCCCCCC [PE(18:1/18:1)]	280.6 Å² and 284.02 Å²	287.57 Å² and 288.54 Å²	
O=C(O)[C@@H]1CCCCN1 [L-Pipecolic Acid]	130.93 Å²		
CC12CCC(CC1=O)C2(C)C (centres undefined) [Camphor]	142.8 Å²		
OC[C@H]1OC(O)[C@H](O)[C@@H](O)[C@H]1O (stereo partly drawn) [D-Galactose]		142.39 Å²	

The next lines start with results.

collision cross section (N2) ([2]; [M+H]+)	collision cross section (N2) ([2]; [M+Na]+)	SMILES	also measured
162.1 Å²	171.99 Å²	C[C@H]1O[C@@H](n2cnc3c(N)ncnc32)[C@H](O)[C@@H]1O [5'-Deoxyadenosine]	collision cross section (N2) ([1]; [M+Na]+): 166.8 Å²; collision cross section (N2) ([1]; [M-H]-): 151.91 Å²
	181.37 Å²	CCCCCCCC/C=C\CCCCCCCC(=O)O [Oleic Acid]	
	196.05 Å²	CCCCC/C=C\C[C@@H](O)/C=C/C=C/C=C\[C@@H](O)CCCC(=O)O [Leukotriene B4]	
	151.4 Å²	O=C[C@H](O)[C@@H](O)[C@H](O)COP(=O)(O)O [D-Xylose 5-phosphate]	
178.96 Å²	173.87 Å²	Nc1nc(=O)c2ncn([C@H]3C[C@H](O)[C@@H](COP(=O)(O)O)O3)c2[nH]1 [2'-Deoxyguanosine 5'-Monophosphate]	
122.66 Å²		O=C(O)CCC(=O)O [Succinic Acid]	
156.07 Å²	152.77 Å²	Nc1ccc(S(N)(=O)=O)cc1 [Sulfanilamide]	
131.7 Å²	137.57 Å²	CC(=O)NCCCCN [N-Acetylputrescine]	collision cross section (N2) ([1]; [M+H]+): 128.3 Å²; collision cross section (N2) ([1]; [M-H]-): 127.22 Å²
	225 Å²	OC[C@H]1O[C@@H](O[C@H]2[C@H](O)[C@@H](O)[C@H](O[C@H]3[C@H](O)[C@@H](O)[C@H](O[C@H]4[C@H](O)[C@@H](O)C(O)O[C@@H]4CO)O[C@@H]3CO)O[C@@H]2CO)[C@H](O)[C@@H](O)[C@@H]1O (some centres undefined) [Cellotetraose]	
157.67 Å²	160.83 Å²	Nc1c(O)cccc1C(=O)CC(N)C(=O)O (racemic) [3-Hydroxy-DL-kynurenine]	
	153.25 Å²	O=C(CO)[C@H](O)[C@H](O)COP(=O)(O)O [D-Ribulose 5-Phosphate]	
167.23 Å²	165.7 Å²	CC[C@H](NC(=O)CC[C@H](N)C(=O)O)C(=O)NCC(=O)O [Ophthalmic Acid]	
	147.72 Å²	OC[C@H]1OC(O)[C@H](O)[C@@H](O)[C@@H]1O (stereo partly drawn) [D-Glucose]	
	154.76 Å²	CC(=O)N[C@@H]1C(O)O[C@H](CO)[C@@H](O)[C@@H]1O (stereo partly drawn) [N-Acetyl-D-mannosamine]	
	141.76 Å²	O=C(CO)[C@@H](O)[C@H](O)CO [D-Xylulose]	
138.54 Å²		C[N+](C)(C)CCOP(=O)(O)O [Phosphocholine]	
	192.43 Å²	O=P(O)(O)OC[C@H]1O[C@H](O[C@H]2O[C@H](CO)[C@@H](O)[C@H](O)[C@H]2O)[C@H](O)[C@@H](O)[C@@H]1O [Trehalose 6-Phosphate]	
257.07 Å²	260.59 Å²	CCCCCCCCCCC(=O)OC[C@H](COP(=O)([O-])OCC[N+](C)(C)C)OC(=O)CCCCCCCCCC [PC(11:0/11:0)]	
	155.8 Å²	O=P(O)(O)OC[C@H]1OC(O)[C@H](O)[C@@H]1O (stereo partly drawn) [D-Ribose 5-Phosphate]	
